Target: T1, nuclear factor-kappa B (NF-kB)-inducing kinase (NIK) (Homo sapiens, UniProt Q99558)
T1 construct: made in house; host or cells: baculovirus-infected insect cells
Experiment: NIK Enzyme Inhibition Assay (Transcreener ADP assay)
Format: biochemical
Conditions: purified NIK 0.2-1 nM, 10 uM ATP, fluorescence polarization, Morrison's quadratic equation; read-out: inhibitory value (Ki) for NIK

T1 sequence (Q99558 whole entry): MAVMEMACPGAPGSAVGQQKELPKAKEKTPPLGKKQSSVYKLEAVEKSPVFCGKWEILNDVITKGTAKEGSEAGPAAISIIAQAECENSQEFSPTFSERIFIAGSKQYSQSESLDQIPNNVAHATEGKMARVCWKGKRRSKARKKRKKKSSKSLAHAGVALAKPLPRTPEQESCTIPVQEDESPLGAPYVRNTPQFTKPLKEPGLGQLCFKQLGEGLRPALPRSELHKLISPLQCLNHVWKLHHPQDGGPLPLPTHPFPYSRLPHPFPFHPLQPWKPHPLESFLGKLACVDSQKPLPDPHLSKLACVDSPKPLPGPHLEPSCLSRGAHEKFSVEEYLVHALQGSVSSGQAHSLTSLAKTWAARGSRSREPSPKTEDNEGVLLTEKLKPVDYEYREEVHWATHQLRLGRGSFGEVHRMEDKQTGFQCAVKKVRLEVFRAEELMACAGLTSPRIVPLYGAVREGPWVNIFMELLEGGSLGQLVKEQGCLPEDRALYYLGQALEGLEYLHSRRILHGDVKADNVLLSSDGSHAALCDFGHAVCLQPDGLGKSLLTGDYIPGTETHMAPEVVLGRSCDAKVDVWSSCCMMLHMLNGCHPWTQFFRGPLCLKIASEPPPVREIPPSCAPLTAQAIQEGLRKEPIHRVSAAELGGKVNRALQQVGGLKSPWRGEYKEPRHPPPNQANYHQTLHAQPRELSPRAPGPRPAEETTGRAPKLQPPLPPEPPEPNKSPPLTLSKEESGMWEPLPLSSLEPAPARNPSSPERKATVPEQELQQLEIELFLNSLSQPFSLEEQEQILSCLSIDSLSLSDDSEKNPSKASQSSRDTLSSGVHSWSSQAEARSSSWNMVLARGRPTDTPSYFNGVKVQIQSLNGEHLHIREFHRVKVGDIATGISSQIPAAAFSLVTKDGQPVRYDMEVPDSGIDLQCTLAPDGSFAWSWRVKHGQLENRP

| Structure (SMILES) | Ki [nM] |
| --- | --- |
| Cc1nc2ccc(C#CC3(O)CCCOC3)cc2n1-c1ncnc(N)n1 (stereo not shown) [Example T1.1-114, 3-[2-[3-(4-amino-1,3,5-triazin-2-yl)-2-methyl-benzimidazol-5-yl]ethynyl] tetrahydropyran-3-ol] | 2600 |
| Cc1nc2ccc(C#CC3(O)CC(CO)C3)cc2n1-c1ncnc(N)n1 (stereo not shown) [Example T1.1-115, 1-[2-[3-(4-amino-1,3,5-triazin-2-yl)-2-methyl-benzimidazol-5-yl]ethynyl]-3-(hydroxymethyl)cyclobutanol] | 3900 |
| Cc1nc2ccc(C#CC3(O)COC3)cc2n1-c1ncnc(N)n1 [Example T1.1-116, 3-[2-[3-(4-amino-1,3,5-triazin-2-yl)-2-methyl-benzimidazol-5-yl]ethynyl] oxetan-3-ol] | ≥ 5000 |
| CN(C)C(=O)c1nn(-c2ccnc(N)n2)c2cc(C#CC3(O)CCn4cncc43)ccc12 (stereo not shown) [Example T1.1-117, 1-(2-aminopyrimidin-4-yl)-6-[2-(7-hydroxy-5,6-dihydropyrrolo[1,2-c]imidazol-7-yl)ethynyl]-N,N-dimethyl-indazole-3-carboxamide] | ≥ 5000 |
| Cc1nc2ccc(C#CC(C)(C)CO)cc2n1-c1ncnc(N)n1 [Example T1.1-118, 4-[3-(4-amino-1,3,5-triazin-2-yl)-2-methyl-benzimidazol-5-yl]-2,2-dimethyl-but-3-yn-1-ol] | ≥ 5000 |
| CNc1ccnc(-n2ncc3ccc(C#CC(C)(O)c4cc(C)on4)cc32)n1 (stereo not shown) [Example T1.1-119, 4-[1-[4-(methylamino)pyrimidin-2-yl]indazol-6-yl]-2-(5-methyl-isoxazol-3-yl)but-3-yn-2-ol] | ≥ 5000 |
| Nc1nccc(-n2ncc3c(F)cc(C#CC4(O)CCCC4)cc32)n1 [Example T1.1-120, 1-[2-[1-(2-aminopyrimidin-4-yl)-4-fluoro-indazol-6-yl]ethynyl] cyclopentanol] | ≥ 5000 |
| CC(O)(C#Cc1ccc2c(C(=O)N3CCOCC3)nn(-c3ccnc(N)n3)c2c1)c1ccncn1 (stereo not shown) [Example T1.1-121, [1-(2-aminopyrimidin-4-yl)-6-(3-hydroxy-3-pyrimidin-4-yl-but-1-ynyl)indazol-3-yl]-morpholino-methanone] | ≥ 5000 |
| CC(O)(C#Cc1ccc2nc(OCCO)n(-c3ccnc(N)n3)c2c1)c1ccc(Cl)cn1 (stereo not shown) [Example T1.1-123, 4-[3-(2-aminopyrimidin-4-yl)-2-(2-hydroxyethoxy)benzimidazol-5-yl]-2-(5-chloro-2-pyridyl)but-3-yn-2-ol] | ≥ 5000 |
| Cc1nc2ccc(C#CC(C)(O)Cn3cccn3)cc2n1-c1ncnc(N)n1 (stereo not shown) [Example T1.1-126, 4-[3-(4-amino-1,3,5-triazin-2-yl)-2-methyl-benzimidazol-5-yl]-2-methyl-1-pyrazol-1-yl-but-3-yn-2-ol] | ≥ 5000 |
| CC(O)(C#Cc1ccc2c(C(=O)N3CCOCC3)nn(-c3ccnc(N)n3)c2c1)c1ncccn1 (stereo not shown) [Example T1.1-130, [1-(2-aminopyrimidin-4-yl)-6-(3-hydroxy-3-pyrimidin-2-yl-but-1-ynyl)indazol-3-yl]-morpholino-methanone] | ≥ 5000 |

The next compounds have a lower Ki than those just listed; values first:

| Ki [nM] | Structure (SMILES) |
| --- | --- |
| 2400 | Cc1nc2ccc(C#CC3(O)CC(C#N)C3)cc2n1-c1ncnc(N)n1 (stereo not shown) [Example T1.1-113, 3-[2-[3-(4-amino-1,3,5-triazin-2-yl)-2-methyl-benzimidazol-5-yl]ethynyl]-3-hydroxy-cyclobutanecarbonitrile] |
| 1800 | Cc1nc2ccc(C#CC(C)(O)c3nc(CC#N)cs3)cc2n1-c1ncnc(N)n1 (stereo not shown) [Example T1.1-112, 2-[2-[3-[3-(4-amino-1,3,5-triazin-2-yl)-2-methyl-benzimidazol-5-yl]-1-hydroxy-1-methyl-prop-2-ynyl]thiazol-4-yl] acetonitrile] |
| 20 | CC(O)(C#Cc1ccc2c(C(=O)N3CC(F)(F)C3)nn(-c3ccnc(N)n3)c2c1)c1ncccn1 (stereo not shown) [Example T1.1-139, [1-(2-aminopyrimidin-4-yl)-6-(3-hydroxy-3-pyrimidin-2-yl-but-1-ynyl)indazol-3-yl]-(3,3-difluoroazetidin-1-yl)methanone] |
| 9 | COCCNc1nc2ccc(C#CC(C)(O)c3nc(C)cs3)cc2n1-c1ccnc(N)n1 (stereo not shown) [Example T1.1-131, 4-[3-(2-aminopyrimidin-4-yl)-2-(2-methoxyethylamino)benzimidazol-5-yl]-2-(4-methylthiazol-2-yl)but-3-yn-2-ol] |
| 7 | Cc1nnc(C(C)(O)C#Cc2ccc3c(C(=O)N4CCOCC4)nn(-c4ccnc(N)n4)c3c2)o1 (stereo not shown) [Example T1.1-137, [1-(2-aminopyrimidin-4-yl)-6-[3-hydroxy-3-(5-methyl-1,3,4-oxadiazol-2-yl)but-1-ynyl]indazol-3-yl]-morpholino-methanone] |
| 7 | CN(C(=O)c1nn(-c2ccnc(N)n2)c2cc(C#CC(C)(O)c3ncccn3)ccc12)c1ccccn1 (stereo not shown) [Example T1.1-142, 1-(2-aminopyrimidin-4-yl)-6-(3-hydroxy-3-pyrimidin-2-yl-but-1-ynyl)-N-methyl-N-(2-pyridyl)indazole-3-carboxamide] |
| 5.28 | CC(O)(C#Cc1ccc2c(C(=O)N3CC4CC4C3)nn(-c3ccnc(N)n3)c2c1)c1ncccn1 (stereo not shown) [Example T1.1-140, [1-(2-aminopyrimidin-4-yl)-6-(3-hydroxy-3-pyrimidin-2-yl-but-1-ynyl)indazol-3-yl]-(3-azabicyclo[3.1.0]hexan-3-yl)methanone] |
| 3 | CC(O)(C#Cc1ccc2c(C(=O)N3CCOCC3)nn(-c3ccnc(N)n3)c2c1)c1ncco1 (stereo not shown) [Example T1.1-144, [1-(2-aminopyrimidin-4-yl)-6-(3-hydroxy-3-oxazol-2-yl-but-1-ynyl)indazol-3-yl]-morpholino-methanone] |
| 2 | Cc1nn(-c2ccnc(N)n2)c2cc(C#CC3(O)CCCN(C)C3=O)ccc12 (stereo not shown) [Example T1.1-136, 3-[2-[1-(2-aminopyrimidin-4-yl)-3-methyl-indazol-6-yl]ethynyl]-3-hydroxy-1-methyl-piperidin-2-one] |
| 2 | CC(O)(C#Cc1ccc2c(C(=O)Nc3cccnc3)nn(-c3ccnc(N)n3)c2c1)c1ncccn1 (stereo not shown) [Example T1.1-143, 1-(2-aminopyrimidin-4-yl)-6-(3-hydroxy-3-pyrimidin-2-yl-but-1-ynyl)-N-(3-pyridyl) indazole-3-carboxamide] |
| 1 | Cc1nn(-c2ccnc(N)n2)c2cc(C#CC(C)(O)c3nccs3)ccc12 (stereo not shown) [Example T1.1-125, 4-[1-(2-aminopyrimidin-4-yl)-3-methyl-indazol-6-yl]-2-thiazol-2-yl-but-3-yn-2-ol] |
| 0.4 | CC(O)(C#Cc1ccc2nc(OCCO)n(-c3ccnc(N)n3)c2c1)c1ccc(Cl)cn1 (stereo not shown) [Example T1.1-133, 4-[3-(2-aminopyrimidin-4-yl)-2-(2-hydroxyethoxy)benzimidazol-5-yl]-2-(5-chloro-2-pyridyl)but-3-yn-2-ol] |
| 0.3 | Cc1nc([C@](C)(O)C#Cc2ccc3nc(OCCF)n(-c4ccnc(N)n4)c3c2)no1 [Example T1.1-122, (2R)-4-[3-(2-aminopyrimidin-4-yl)-2-(2-fluoroethoxy)benzimidazol-5-yl]-2-(5-methyl-1,2,4-oxadiazol-3-yl)but-3-yn-2-ol] |
| 0.2 | COCCN(C)C(=O)c1nn(-c2ccnc(N)n2)c2cc(C#CC(C)(O)c3ncccn3)ccc12 (stereo not shown) [Example T1.1-138, 1-(2-aminopyrimidin-4-yl)-6-(3-hydroxy-3-pyrimidin-2-yl-but-1-ynyl)-N-(2-methoxyethyl)-N-methyl-indazole-3-carboxamide] |
